Results taken from patent publication US8912142B2, “Method of regulating proliferation and differentiation of keratinocyes” (The Medical Research, Infrastructure and Health Services …, priority 2009, dated 2014).
d = 2'-deoxy (DNA); r = 2'-OH (RNA)

Experiments:
[1] = tested on: primary keratinocytes transfected with IGFBP7 siRNA; test: ERK inhibition, proliferation of IGFBP7-silenced primary keratinocytes; assay type: cell-based, human; conditions: 120 μM for 72 hours, medium refreshed every 24 hours
Procedure: FIG. 17 is a histogram depicting the effect of ERK inhibition on primary keratinocytes proliferation in IFGBP7-silenced cells and control cells. Primary keratinocytes which were transfected with IGFBP7 siRNA were treated with 120 μM PD98059 (ERK inhibitor) for 72 hours, while refreshing the medium every 24 hours. Note that ERK inhibition attenuates cell proliferation induced by IGFBP7 down-regulation (p<0.01).
To further investigate the involvement of ERK in IGFBP7-mediated cell proliferation primary keratinocytes which were transfected with IGFBP7 siRNA were treated with the ERK inhibitor PD98059 (120 μM for 72 hours, while refreshing the medium every 24 hours).

[2] = tested on: primary human keratinocytes; test: MTT assay (cell viability) in primary keratinocytes; assay type: cell-based
Procedure: (§1) FIGS. 3A-F depict viability and proliferation assays of keratinocytes. […] Data represent mean values±SD of three independent experiments. Asterisk, p<0.01 compared with control cells. FIG. 3B—HaCat cells stably expressing an IGFBP7-specific shRNA or a control shRNA were assessed using the BrDu assay (stable transfection). Data represent mean values±SD of three independent experiments. Asterisk, p<0.01 compared with control cells. FIGS. 3C and D—KRT6a mRNA and protein levels were assessed by qRT-PCR (FIG. 3C) and immunoblotting (FIG. 3D) in HaCat cells stably expressing an IGFBP7-specific shRNA or a control shRNA. FIGS. 3E and F—Primary keratinocytes were transiently transfected with IGFBP7-specific siRNA (IGFBP7) or with control siRNA (control) and assessed using the MTT assay (FIG. 3E; 24 and 48 hours post transfection) and the BrDu assay (FIG. 3F; 24 hours post transfection). Data represent mean values±SD of three independent experiments (Asterisk, p<0.01 compared with control cells).
(§2) FIGS. 6A-C depict cell viability and proliferation assays of primary keratinocytes which exogenously express IGFBP7. […] FIGS. 6A-B—Cell viability and proliferation were assessed using the MTT (FIG. 6A) and BrDU (FIG. 6B) assays. FIG. 6C—Apoptosis was quantitated by TUNEL assay. […]

[3] = tested on: primary human keratinocytes; test: BrDu incorporation assay (proliferation) in primary keratinocytes; assay type: cell-based
Procedure: as §1, with “Data represent mean values±SD of three independent experiments (Asterisk, p<0.01 compared with control cells).” left out
as §2
The incorporation rate of BrdU was determined by Cell Proliferation ELISA BrdU colorimetric kit (Roche, Mannheim, Germany) according to manufacturer's protocol. Absorbance at 450 nm was measured using an ELISA reader. […]

[4] = tested on: primary human keratinocytes; test: TUNEL apoptosis assay in primary keratinocytes; assay type: cell-based
Procedure: FIGS. 4A-C depict apoptosis assays in HaCat or primary keratinocyte cells. FIGS. 4A-B—HaCat cells stably expressing IGFBP7-specific (IGFBP7) or control shRNA (Co) (scrambled control), were exposed to 10 ng/μl of recombinant tumor necrosis factor-alpha (TNF-α) (+) or vehicle (−) 24 hours after transfection. Apoptosis was measured using the TUNEL assay (FIG. 4A) or the Annexin V assay (FIG. 4B). FIG. 4C—Primary keratinocytes were transiently transfected with IGFBP7-specific siRNA (IGFBP7) or with scrambled control siRNA (Co) and exposed to 10 ng/μl of recombinant TNF-α (+) or vehicle (−). Apoptotic activity was assessed by the TUNEL assay. All experiments were repeated three times. Results are provided as mean values±SD. […]
as §2
Apoptosis was assessed using the TUNEL kit (Roche, Mannheim, Germany) according to the manufacturer's protocol. […] More than 1,000 cells were counted for each slide and examined under a fluorescent microscope Zeiss Axioscope 2 (Carl Zeiss MicroImaging, Inc., Thornwood, N.Y.). […] Differences in apoptotic activity were considered significant at p-values <0.01 calculated using a standard Student's t-test.

IGFBP7 = test: qRT-PCR of IGFBP7 mRNA in organotypic skin equivalents; assay type: cell-based, human
Procedure: RNA was extracted from cultured cells using an RNA extraction kit (Roche Mannheim, Germany). cDNA was synthesized from 500 ng of total RNA using the Reverse-iT first strand synthesis kit (ABgene, Epson, UK) and random hexamers. cDNA PCR amplification was carried out using the SYBR Green JumpStart Taq ReadyMix (Sigma-Aldrich, St Louis, Mo., USA) on a M×3000 p/5 p multifilter system (Stratagene, Cedar Creek, Tex., USA) with gene-specific intron-crossing oligonucleotide pairs listed in Table 2 below. To ensure the specificity of the reaction conditions, at the end of the individual runs, the melting temperature (Tm) of the amplified products was measured to confirm its homogeneity. […] Each sample was analyzed in triplicate. For quantification, standard curves were obtained using serially diluted cDNA amplified in the same real-time PCR run. […] After the quantification procedure, the products were resolved by 2.5% agarose gel electrophoresis to confirm that the reaction had amplified DNA fragments of expected size.
(§3) To confirm the physiological relevance of these findings in keratinocyte monolayers, the present inventors suppressed the expression of IGFBP7 by RNA interference in skin organotypic cultures. […] Punch biopsies were also taken at day 7 for RNA extraction, transcribed to cDNA and analyzed by qRT-PCR for IGFBP7 mRNA expression. […]

[5] = tested on: three-dimensional organotypic skin equivalents; test: H&E staining of organotypic skin equivalents; assay type: cell-based, human; conditions: day 14
Procedure: The present inventors used a three-dimensional organotypic cell culture system to model the role of decreased IGFBP7 expression in the pathogenesis of psoriasis (FIGS. 18 and 19). In this model system, keratinocytes are grown at the air liquid interface on a support consisting of collagen and fibroblasts for up to 2 weeks. During this time, keratinocytes fully differentiate, forming a multilayered, cornified epithelium which faithfully replicates most physiological aspects of normal epidermal biology. The present inventors established the conditions necessary to grow such three-dimensional skin equivalents. Histological and immunohistochemical analyses confirmed the existence of a legitimate differentiation program in these cultures. […] At day 12, the stratum corneum was thickened and desquamation, i.e., detachment of cornified keratinocytes, occurred (FIG. 20).
as §3, with “expression. IGFBP7 specific siRNA suppressed IGFBP7 expression to less than 60% of the normal level in skin equivalents as measured at day 7 (data not shown).” for “expression.”

HaCat cells = test: MTT assay (cell viability) in HaCat cells; assay type: cell-based, human; conditions: siRNA, cultured 24 and 72 hours
Procedure: as §1
The MTT test is based on the selective ability of living cells to reduce the yellow salt MTT (3-(4,5-dimethylthiazolyl-2)-2,5-diphenyltetrazolium bromide) (Sigma, Aldrich St Louis, Mo., USA) to a purple-blue insoluble formazan precipitate. […] The supernatants were collected and then scanned with an ELISA reader Zenyth 200 (Anthos Labtec, Cambridge, UK) at 560 nm.

[6] = tested on: primary keratinocyte cells; test: Effect of rIGFBP7 on differentiation of primary keratinocytes; assay type: cell-based, human; conditions: data not shown
From the text: To confirm the involvement of IGFBP7 in the regulation of keratinocyte proliferation and differentiation, the present inventors examined the effect of recombinant human IGFBP7 polypeptide (rIGFBP7) on primary keratinocyte cells.

[7] = tested on: human skin grafted onto beige-SCID mice injected with NK/T cells from psoriatic patients; test: Chimeric human-mouse psoriasis model, histology; assay type: in vivo; conditions: intralesional, histology two weeks after the treatment
Procedure: To assess the effect of IGFBP7 on psoriasis, the present inventors used a chimeric mouse model (FIG. 23). The model is based on the use of normal skin from healthy controls that is grafted onto beige-SCID mice. The grafts are then injected with NK/T cells isolated from psoriatic patients (Gilhar et al., 2002).
In the experimental system used herein, two weeks after NK injection (6 weeks after engraftment) 3 groups of mice were treated with intralesional PBS, topical dexamethasone and intralesional IGFBP7. The effect of the treatment was monitored by histology analysis two weeks after the treatment (8 weeks after engraftment).

[8] = 1.8 μg/μl rIGFBP7 for 72 hours, then 12 hours in medium lacking rIGFBP7

Molecule: COc1cccc(-c2cc(=O)c3ccccc3o2)c1N [PD98059]
- keratinocyte proliferation induced by IGFBP7 down-regulation [1]: prevented the induction of keratinocyte proliferation

Molecule: IGFBP7 specific siRNA: siRNA IGFBP7 duplex of SEQ ID NO:32 and SEQ ID NO:33 (Sigma-Proligo) (chain 1 GCUGGUAUCUCCUCUAAGUTT; chain 2 ACUUAGAGGAGAUACCAGCTT; sugars from the 5' end r19 d2, backbone not given here)
- cell viability (MTT assay) ([2]; primary keratinocytes, 24 and 48 hours post transfection): more viable and proliferative
- cell proliferation (BrDu assay) ([3]; primary keratinocytes, 24 hours post transfection): more viable and proliferative
- TNF-α-induced cell apoptosis (TUNEL assay) ([4]; primary keratinocytes transiently transfected, 10 ng/μl recombinant TNF-α): prevented TNF-α-induced cell apoptosis
- duration of the siRNA effect (IGFBP7; organotypic skin model, data not shown): at least 7 days
- IGFBP7 expression relative to normal level (IGFBP7; skin equivalents, day 7, data not shown): less than 60%
- H&E histological changes [5]: abnormal stratification, absence of granular layer, parakeratosis and marked hyperkeratosis
- cell viability (MTT assay) (HaCat cells): more viable and proliferative

Molecule: rIGFBP7: human recombinant IGFBP7 polypeptide (R&D systems Inc. Catalogue No. 1334-B7-025)
- viable cell counts (MTT assay) [2, 8]: decrease in viable cell counts
- cell proliferation (BrDu assay) [3, 8]: decrease in cell proliferation
- keratinocyte apoptosis (TUNEL assay) ([4]; 1.8 μg/μl rIGFBP7 for 72 hours, then 12 hours in medium lacking rIGFBP7, TNF-α-mediated): increase in keratinocyte apoptosis
- cell differentiation [6]: lacked significant effect on cell differentiation
- mice with features of psoriasis on histology [7]: one animal only showed features of psoriasis on histology
- mice with full recovery on histology [7]: three mice showed full recovery
- mice with partial recovery on histology [7]: one mouse recovered partially (50%)
- mononuclear infiltrating cells in the dermis [7]: could still be seen in the dermis albeit in smaller numbers
